{"source": "patent US4420639A", "about": "“Aromatic compounds” (Beecham Group Limited, priority 1973, dated 1983)", "key": {"[1]": {"system": "stomach / gastro-intestinal tract", "assay": "Gastro-intestinal irritancy at or near the therapeutic dose (general statement)", "format": "in vivo"}, "oestrogenicity": {"system": "oestrogenicity", "assay": "Oestrogenic effects (general statement)", "format": "in vivo", "settings": "at the therapeutic dose"}, "[2]": {"system": "Carrageenin Induced Oedema", "assay": "Carrageenin Induced Oedema in Rats", "format": "in vivo, rat", "settings": "5, 10, 35 and 70 mg/kg p.o.", "source_text": "a. Carrageenin Induced Oedema in Rats."}, "[3]": {"system": "Cotton Pellet Induced Granuloma", "assay": "Cotton Pellet Induced Granuloma in Rats", "format": "in vivo, rat", "settings": "50 mg/kg p.o. dosed from day 0 to 5 days", "protocol": "c. Cotton Pellet Induced Granuloma in Rats. Consistent activity (reducing induced granuloma by more than 30%) has been observed at 50 mg/kg p.o. dosed from day 0 to 5 days."}, "Adjuvant arthritis": {"system": "Adjuvant arthritis", "assay": "Adjurant Arthritis in Rats", "format": "in vivo, rat", "settings": "daily administration of 60 mg/kg p.o.", "protocol": "d. Adjurant Arthritis in Rats.\nAdjuvant arthritis is reduced in rats by the daily administration of doses of 60 mg/kg p.o."}, "[4]": {"system": "cultured mouse peritoneal macrophages", "assay": "Macrophage Plasmongen Activator Release test", "format": "cell-based", "settings": "1 mg/ml"}, "[5]": {"system": "pyresis induced by Shigella endotoxin", "assay": "Anti-pyretic Effect in Rabbits", "format": "in vivo, rabbit", "settings": "doses down to 100 mg/kg p.o.; intravenous Shigella endotoxin", "source_text": "g. Anti-pyretic Effect in Rabbits."}, "Adrenal/Pitutary Axis": {"system": "Adrenal/Pitutary Axis", "assay": "Interactions with the Adrenal/Pitutary Axis", "format": "in vivo", "settings": "five days at 140 mg/kg p.o./day; response to ACTH or ether stress", "source_text": "h. Interactions with the Adrenal/Pitutary Axis."}, "[6]": {"system": "ovariectomised rats, uterine weight", "assay": "Oestrogenic Test in Rats (uterine weight)", "format": "in vivo, rat", "settings": "200 mg/kg p.o. and 600 mg/kg p.o. for 4 days", "source_text": "i. Oestrogenic Test in Rats."}, "[7]": {"system": "uterus / endometrium (Clauberg test)", "assay": "Gestagenic Activity in Rabbits (Clauberg test)", "format": "in vivo, rabbit", "settings": "200 mg/kg p.o. for 4 days", "source_text": "k. Gestagenic Activity in Rabbits."}, "pyloric ligated rat": {"system": "pyloric ligated rat", "assay": "Gastric Damage in Pyloric Ligated Rats", "format": "in vivo", "settings": "up to 200 mg/kg intra-duadenally", "source_text": "l. Gastric Damage in Pyloric Ligated Rats."}, "[8]": {"system": "gastric erosions or ulceration", "assay": "Ulcerogenic Activity in Rats", "format": "in vivo, rat", "settings": "250 mg/kg p.o. or 500 mg/kg p.o.", "source_text": "m. Ulcerogenic Activity in Rats."}}}
{"smiles": "COc1ccc2cc(CCC(C)=O)ccc2c1", "note": "[4-(6'-methoxy-2'-naphthyl)butan-2-one]", "values": [{"measurement": "irritation of the stomach / gastric-irritant effects", "setting": "[1]", "result": "not causing either oestrogenic effects or pronounced gastric-irritant effects"}, {"measurement": "oestrogenic effects", "setting": "oestrogenicity", "result": "not causing either oestrogenic effects"}, {"measurement": "reduction in induced oedema volume", "setting": "[2]", "result": "significant reduction in induced oedema volume"}, {"measurement": "changes in body weight or in the weight of the spleen, thymus, kidney, liver or adrenal glands", "setting": "[3]", "result": "not accompanied by marked changes"}, {"measurement": "reduction of induced granuloma", "setting": "[3]", "result": "more than 30%"}, {"measurement": "reduction of adjuvant arthritis", "setting": "Adjuvant arthritis", "result": "reduced"}, {"measurement": "inhibition of the release of plasmogen activator", "setting": "[4]", "result": "slight inhibition"}, {"measurement": "reduction of pyresis", "setting": "[5]", "result": "reduced pyresis"}, {"measurement": "interference with release of corticosteroids from the adrenal gland", "setting": "Adrenal/Pitutary Axis", "result": "does not interfere with release of corticosteroids"}, {"measurement": "increase in uterine weight", "setting": "[6]", "result": "did not result in any increase in uterine weight"}, {"measurement": "uterine hypertrophy or progestational changes in the endometrium", "setting": "[7]", "result": "did not result in uterine hypertrophy or progestational changes in the endometrium"}, {"measurement": "overt gastric damage", "setting": "pyloric ligated rat", "result": "nor did overt gastric damage result"}, {"measurement": "systemically mediated effect on the volume of gastric secretion", "setting": "pyloric ligated rat", "result": "have not been found to have a systemically mediated effect on the volume of gastric secretion"}, {"measurement": "gastric erosions at longer contact times", "setting": "[8]; longer contact times than 4 hours", "result": "did lead in some cases to some degree of erosions"}, {"measurement": "gastric erosions or ulceration", "setting": "[8]; starved 18 hours, examined 1 or 4 hours after dosing", "result": "did not give rise to gastric erosions or ulceration"}]}
